Assay results from ChEMBL document CHEMBL1201862, “PubChem BioAssay data set” (2004).
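How tested: cells in 96-well plates exposed to compound for 48 hours at five concentrations. GI50: concentration for 50% inhibition of growth.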 The source made the active and inactive calls. No stated cut-off is given here; in the data, active = GI50 up to about 1.1 µM and inactive = higher.

Experiments:
Assay in all cases: growth of human tumour cells (NCI), 48 h
A498 = tested on: A498
BT-549 = tested on: BT-549
CAKI-1 = tested on: CAKI-1
COLO 205 = tested on: COLO 205
HCT-116 = tested on: HCT-116
HOP-92 = tested on: HOP-92
MDA-MB-435 = tested on: MDA-MB-435
Malme-3M = tested on: Malme-3M
NCI-H23 = tested on: NCI-H23
NCI-H460 = tested on: NCI-H460
OVCAR-3 = tested on: OVCAR-3
OVCAR-5 = tested on: OVCAR-5
SF-539 = tested on: SF-539
SK-MEL-2 = tested on: SK-MEL-2
SK-MEL-5 = tested on: SK-MEL-5
SK-OV-3 = tested on: SK-OV-3
SW-620 = tested on: SW-620
UACC-62 = tested on: UACC-62
HL-60 = tested on: HL-60

Row | SMILES | GI50 (A498) | GI50 (BT-549) | GI50 (CAKI-1) | GI50 (COLO 205) | GI50 (HCT-116) | GI50 (HOP-92) | GI50 (MDA-MB-435) | GI50 (Malme-3M) | GI50 (NCI-H23) | GI50 (NCI-H460) | GI50 (OVCAR-3) | GI50 (OVCAR-5) | GI50 (SF-539) | GI50 (SK-MEL-2) | GI50 (SK-MEL-5) | GI50 (SK-OV-3) | GI50 (SW-620) | GI50 (UACC-62) | GI50 (HL-60)
1 | Cc1oc2c(c1C)S(=O)(=O)C(C#N)C(c1ccccc1)N2 (stereo not drawn) | > 100 µM (inactive) | 45.4 µM (inactive) | 36.1 µM (inactive) | 29.3 µM (inactive) | 50 µM (inactive) | 64.6 µM (inactive) | 34.5 µM (inactive) | 37.7 µM (inactive) | 69.5 µM (inactive) | 41 µM (inactive) | 65.6 µM (inactive) | 91.6 µM (inactive) | 39.6 µM (inactive) | 61.8 µM (inactive) | 32.4 µM (inactive) | 86.5 µM (inactive) | > 100 µM (inactive) | 41.4 µM (inactive) | –
2 | N#CC1Cc2cc3c(cc21)OCO3 (stereo not drawn) | > 100 µM (inactive) | > 100 µM (inactive) | > 100 µM (inactive) | > 100 µM (inactive) | > 100 µM (inactive) | > 100 µM (inactive) | > 100 µM (inactive) | > 100 µM (inactive) | > 100 µM (inactive) | > 100 µM (inactive) | > 100 µM (inactive) | > 100 µM (inactive) | > 100 µM (inactive) | > 100 µM (inactive) | > 100 µM (inactive) | – | > 100 µM (inactive) | > 100 µM (inactive) | –
3 | C1=N\CCOCC/N=C/c2ccccc2OCc2cccc(n2)COc2ccccc2/1 | > 25 µM (inactive) | 6.76 µM (inactive) | – | 13 µM (inactive) | 4.99 µM (inactive) | 10.4 µM (inactive) | 0.778 µM (active) | 4.53 µM (inactive) | 12.5 µM (inactive) | > 25 µM (inactive) | 3.51 µM (inactive) | 5.26 µM (inactive) | 3.2 µM (inactive) | 8.63 µM (inactive) | – | 11.2 µM (inactive) | 4.79 µM (inactive) | 2.27 µM (inactive) | 5.07 µM (inactive)
4 | Cc1ccc(S(=O)(=O)N2CCCCN(S(=O)(=O)c3ccc(C)cc3)Cc3ccccc3OCCOCCOc3c4cccc3Cc3cccc5c3OCCOCCOc3ccccc3CN(S(=O)(=O)c3ccc(C)cc3)CCCN(S(=O)(=O)c3ccc(C)cc3)Cc3ccccc3OCCOCCOc3c(cccc3C4)Cc3cccc(c3OCCOCCOc3ccccc3C2)C5)cc1 | 53.2 µM (inactive) | > 100 µM (inactive) | > 100 µM (inactive) | > 100 µM (inactive) | > 100 µM (inactive) | > 100 µM (inactive) | > 100 µM (inactive) | > 100 µM (inactive) | > 100 µM (inactive) | > 100 µM (inactive) | > 100 µM (inactive) | > 100 µM (inactive) | > 100 µM (inactive) | > 100 µM (inactive) | > 100 µM (inactive) | > 100 µM (inactive) | > 100 µM (inactive) | > 100 µM (inactive) | –
5 | NCCSCCC(=O)O | > 68.7 µM (inactive) | > 100 µM (inactive) | > 59.2 µM (inactive) | 30.4 µM (inactive) | > 56.6 µM (inactive) | > 100 µM (inactive) | > 100 µM (inactive) | > 100 µM (inactive) | > 25.8 µM (inactive) | > 12.4 µM (inactive) | > 100 µM (inactive) | > 100 µM (inactive) | 21.9 µM (inactive) | > 83.8 µM (inactive) | 39.9 µM (inactive) | > 65.8 µM (inactive) | 19.7 µM (inactive) | > 45.4 µM (inactive) | –
